According to patent US20080039461A1, “Treatment of pain by inhibition of p38 map kinase” (priority 2002, published 2008):

Tests used:
Type in all cases: in vivo, rat
[1] = test system: thermal hyperalgesia induced by IT sP; assay: thermal hyperalgesia evoked by intrathecal substance P; conditions: intrathecal pretreatment (-10 min); sP 30 nmol/10 μL
Procedure: (The inhibitory activity of SD for p38 alpha and p38 beta was evaluated with an assay using recombinant (E. coli) human enzymes and myelin basic protein as a substrate by the methods of Clerk and Kumar respectively. See A. Clerk, P. […]. Sugden, FEBS Lett 426, 93-6. (1998) and S. Kumar, et al., Biochem Biophys Res Commun 235, 533-8. (1997).
(§1) Male Sprague-Dawley rats (300-350 g) were implanted under isoflurane anesthesia with lumbar polyethylene (PE-10) catheters according to a modified method originally described in Physiol. Behav. 17, 1031 (1976). […] IT saline and 5% DMSO alone had no effect on behavior or protein expression/phosphorylation.

[2] = test system: carrageenan-induced thermal hyperalgesia; assay: carrageenan-induced thermal hyperalgesia (Hargreaves-type device)
Procedure: Hyperalgesia was induced in the rat's right hindpaw by intraplantar injection of carrageenan (2 mg in 0.1 ml of a […] solution (weight/volume) in physiological saline). To assess the thermally evoked paw withdrawal time, a device modeled after that described by Hargreaves (1988) was used. See Hargreaves K, Dubner R, Brown F, Flores C, Joris J. A new and sensitive method for measuring thermal nociception in cutaneous hyperalgesia, Pain, 32, 77-88 (1988). The device consisted of a glass surface on top of which the rats were placed. The glass surface was heated by a focused projection bulb below the glass surface. The first sign of discomfort is usually expressed as an attempt to sit up and lick the forepaws by the experimental animal. This response indicates a threshold of pain under the predetermined conditions. Dancing and jumping about by an undrugged animal is an indicator of unbearable pain; whereas drugged animals more commonly withdraw the hind paws and keep them close to their abdomen. A timer was actuated with the light source and latency defined as the time required for the paw to be withdrawn from the glass surface. See Dirig D M, Isakson P C, and Yaksh T L. J Pharmacol Exp Ther., 285, 1031-8 (1998).

[3] = test system: formalin-induced flinching behavior; assay: formalin-induced flinching (paw formalin model); conditions: intrathecal pre-treatment (-10 min)
Procedure: An evaluation was conducted to determine presence or lack thereof for an afferent-mediated induction of phosphorylated (activated) spinal p38 MAPK. A formalin mediated hyperalgesia model was utilized to conduct the evaluation. (In the formalin model, a standard dose of formalin is injected into the rat paw, and flexions of the paw are quantitated over the following 90 minute period. A biphasic response pattern is typically observed, with numerous responses observed during the period five minutes after injection (Phase 1) and a second phase (Phase 2), which occurs during the period about 10-60 minutes following injection. The mean number of flinches per minute is recorded as a function of time. Quantitation of responses during each phase can be accomplished by calculation of area under the curve of flinches/minute.) The formalin induction model reflects several levels of processing of nociceptive information in the spinal cord. See, e.g., U.S. Pat. No. 6,166,085. […] This second phase is thought to represent a state of facilitated processing evoked by the afferent input present during phase I and to involve release of at least two substances, glutamate and a tachykinin, based on pharmacological evidence. Injection of formalin into the paw evokes an initial burst of afferent input followed by a persistent low level discharge. […]

[4] = test system: NMDA-induced hyperalgesia; assay: hyperalgesia induced by intrathecal NMDA; conditions: IT NMDA 0.3 μg; MK801 10 μg, IT SD 3-60 μg, IT SB 1-30 μg, SA 10 μg
Description: as §1

C[S+]([O-])c1ccc(-c2nc(-c3ccncc3)c(-c3ccc(F)cc3)[nH]2)cc1 (centres unmarked) [SB, SB203580]
thermal hyperalgesia induced by IT sP [1]: blocked the thermal hyperalgesia induced by IT sP in a dose dependent fashion | carrageenan-induced thermal hyperalgesia ([2]; intrathecal pre-treatment (-10 min)): potent dose-dependent suppression | response latency of the uninduced paw ([2]; intrathecal, even after the highest doses): no changes | second phase of flinching behavior induced by formalin [3]: potent dose-dependent attenuation | hyperalgesia induced by IT NMDA [4]: reversed in a dose dependent fashion
